Entries after “also recorded” stand apart in the source; their conditions may differ.
Legend:
[1] = molecular target: HLA-A*0201 molecule on T2 cells (Homo sapiens, UniProt P04439, D140Y/D185E/D98H/E176V/E277Q/G131W/G231S/I119V/I121R/I166T/I218V/L300P/L318F/N151K/N90K/P208A/P217A/Q86G/Q94H/R138H/R169H/T345S); assay: Peptide-binding assay (HLA stabilization assay, T2 cell line); format: cell-based; settings: 20 μg/mL peptide, 20 hours, FI more than 1 = strong binding, Fig. S2; for fluorescence index (FI) value: T2 cells 2 × 10^5/well, serum-free RPMI, 37 °C, FACS, PE anti-HLA-A 02 (BB7.2), triplicate
Protocol: The efficiency of the shortlisted epitopes to stabilize the HLA-A 02 allele was measured by HLA stabilization assay using TAP-deficient human cell line that express HLA-A2 (T2 cell line) according to our previously described methodology with certain modifications. Briefly, T2 cells (2 × 10^5/well) were cultured with 20 μg/mL of individual peptides in serum-free RPMI medium for 20 hours at 37 °C in 5% CO2. The HLA stabilization assay was performed in triplicate for each peptide. The tumor HLA A2 bound 10mer peptide was used as positive control. The expression of HLA-A 02 on T2 cells was measured by PE-conjugated mouse anti-human HLA-A 02 monoclonal antibody (clone: BB7.2; Pharmingen), the samples were acquired by FACS Calibur and analyzed by CellQuest software (BD Biosciences). The binding affinity of each peptide was measured by a fluorescence index: FI = (mean PE fluorescence with the given peptide−mean PE fluorescence without peptide)/(mean […] fluorescence without peptide). The epitope with a fluorescence index (FI) more than 1 was considered as strong binding affinity epitopes.

[2] = tested on: PBMCs from HLA A2 negative VL treated subjects; assay: Intracellular IFN-γ from CD8+ T cells (FACS); format: cell-based, human; settings: six HLA A2 negative subjects, overnight plus 6 h brefeldin-A
Protocol: To evaluate the ability of the selected epitopes to trigger the immune cells by CD8+ T cell dependent manner, PBMCs (1 × 10^6/ml) from five HLAA2 positive VL treated subjects were incubated for overnight in the presence or absence of peptide at 37 °C and 5% CO2. Additionally, six HLA A2 negative VL treated subjects were also considered for this study. Stimulation with SLA was run in parallel to all experiments as described previously. After overnight incubation followed by 6 h incubation with brefeldin-A (1 mg/ml), cells were harvested, washed with PBS, and stained with anti-CD3-PerCP (BD Biosciences) and anti-CD8-FITC(BD Biosciences) conjugated antibodies for 30 min at 4 °C. The cells were then washed with stain buffer, fixed and permeabilized Cytofix-Cytoperm buffer (BD Biosciences) for 20 minutes at 4 °C. The intracellular level of IFN-γ was stained with anti-IFN-γ PE-conjugated antibody (BD Biosciences) for 30 minutes and washed with perm wash buffer (BD Biosciences). A logical gate set using was used to measure the co-expression of intracellular CD8+ ve IFN-γ. At least 30 000 cells were acquired for each analysis, and the results are shown in percentage gated value (% gated).

FIIDPNGMV [P8]
binding to / stabilization of HLA-A*0201 on T2 cells, in words [1]: relatively weakly bound

KVLTLFAEV [P5]
fluorescence index (FI) value [1]: above 2
binding to / stabilization of HLA-A*0201 on T2 cells, in words [1]: stabilized the HLA A2; also recorded: strongly bound
intracellular CD3+ ve CD8+ ve IFN-γ [2]: triggered the HLA A2-ve host immune cells by producing CD8+ IFN-γ; also recorded: triggered CD3+ ve CD8+ ve IFN-γ level; also recorded: enhanced CD3+ CD8+ IFN-γ

LLLAEPFPV [P4]
fluorescence index (FI) value [1]: 1.81
binding to / stabilization of HLA-A*0201 on T2 cells, in words [1]: stabilized the HLA A2; also recorded: strongly bound
intracellular CD3+ ve CD8+ ve IFN-γ [2]: triggered the HLA A2-ve host immune cells by producing CD8+ IFN-γ

MLADKTKSI [P6]
binding to / stabilization of HLA-A*0201 on T2 cells, in words [1]: relatively weakly bound

RLLEAFQFV [P7]
fluorescence index (FI) value [1]: above 2
binding to / stabilization of HLA-A*0201 on T2 cells, in words [1]: stabilized the HLA A2; also recorded: strongly bound
intracellular CD3+ ve CD8+ ve IFN-γ [2]: triggered CD3+ ve CD8+ ve IFN-γ level; also recorded: enhanced CD3+ CD8+ IFN-γ

SLARRKLLL [P3]
binding to / stabilization of HLA-A*0201 on T2 cells, in words [1]: relatively weakly bound

SMDSEYAHL [P9]
binding to / stabilization of HLA-A*0201 on T2 cells, in words [1]: relatively weakly bound

TLDHLLVLL [P1]
fluorescence index (FI) value [1]: above 2
binding to / stabilization of HLA-A*0201 on T2 cells, in words [1]: stabilized the HLA A2; also recorded: strongly bound
intracellular CD3+ ve CD8+ ve IFN-γ [2]: triggered the HLA A2-ve host immune cells by producing CD8+ IFN-γ; also recorded: triggered CD3+ ve CD8+ ve IFN-γ level; also recorded: enhanced CD3+ CD8+ IFN-γ

VLLEKATIL [P2]
fluorescence index (FI) value [1]: above 2
binding to / stabilization of HLA-A*0201 on T2 cells, in words [1]: stabilized the HLA A2; also recorded: strongly bound
